Active and inactive are the calls of the source. The calls are words filed in the database; no cut-off is given here.
Columns and labels:
[1] = target: Endoplasmic reticulum aminopeptidase 2 (Homo sapiens, UniProt Q6P179); test: Inhibition of ERAP2 (unknown origin) using Arg-AMC as substrate by fluorescence based assay
[2] = target: Endoplasmic reticulum aminopeptidase 1 (Homo sapiens, UniProt Q9NZ08); test: Inhibition of ERAP1 (unknown origin) using Leu-AMC as substrate by fluorescence based assay
Sequence of Endoplasmic reticulum aminopeptidase 1 (Q9NZ08 whole entry): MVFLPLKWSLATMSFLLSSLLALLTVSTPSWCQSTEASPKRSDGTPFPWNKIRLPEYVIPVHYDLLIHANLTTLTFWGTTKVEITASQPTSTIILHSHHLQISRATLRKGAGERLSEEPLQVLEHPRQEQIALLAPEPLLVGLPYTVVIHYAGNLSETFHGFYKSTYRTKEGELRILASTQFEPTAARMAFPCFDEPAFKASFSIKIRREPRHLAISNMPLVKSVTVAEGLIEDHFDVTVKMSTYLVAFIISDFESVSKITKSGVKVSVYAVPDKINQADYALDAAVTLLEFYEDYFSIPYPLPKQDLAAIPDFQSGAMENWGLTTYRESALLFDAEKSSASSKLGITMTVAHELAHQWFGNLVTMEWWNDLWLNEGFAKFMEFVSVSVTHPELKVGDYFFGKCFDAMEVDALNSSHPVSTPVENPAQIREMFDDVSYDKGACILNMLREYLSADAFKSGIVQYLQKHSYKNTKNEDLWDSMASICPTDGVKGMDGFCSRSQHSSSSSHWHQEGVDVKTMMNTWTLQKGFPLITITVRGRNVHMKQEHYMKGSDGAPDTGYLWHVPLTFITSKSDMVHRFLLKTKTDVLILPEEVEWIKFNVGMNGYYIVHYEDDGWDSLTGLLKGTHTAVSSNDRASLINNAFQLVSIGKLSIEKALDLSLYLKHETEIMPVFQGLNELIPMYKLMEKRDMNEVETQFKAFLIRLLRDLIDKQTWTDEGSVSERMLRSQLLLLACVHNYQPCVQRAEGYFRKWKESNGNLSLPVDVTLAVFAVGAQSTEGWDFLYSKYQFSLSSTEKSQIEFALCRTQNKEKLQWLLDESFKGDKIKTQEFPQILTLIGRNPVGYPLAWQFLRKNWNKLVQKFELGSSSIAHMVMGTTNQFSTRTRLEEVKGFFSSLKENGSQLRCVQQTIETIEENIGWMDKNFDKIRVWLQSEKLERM

Sequence of Endoplasmic reticulum aminopeptidase 2 (Q6P179 whole entry): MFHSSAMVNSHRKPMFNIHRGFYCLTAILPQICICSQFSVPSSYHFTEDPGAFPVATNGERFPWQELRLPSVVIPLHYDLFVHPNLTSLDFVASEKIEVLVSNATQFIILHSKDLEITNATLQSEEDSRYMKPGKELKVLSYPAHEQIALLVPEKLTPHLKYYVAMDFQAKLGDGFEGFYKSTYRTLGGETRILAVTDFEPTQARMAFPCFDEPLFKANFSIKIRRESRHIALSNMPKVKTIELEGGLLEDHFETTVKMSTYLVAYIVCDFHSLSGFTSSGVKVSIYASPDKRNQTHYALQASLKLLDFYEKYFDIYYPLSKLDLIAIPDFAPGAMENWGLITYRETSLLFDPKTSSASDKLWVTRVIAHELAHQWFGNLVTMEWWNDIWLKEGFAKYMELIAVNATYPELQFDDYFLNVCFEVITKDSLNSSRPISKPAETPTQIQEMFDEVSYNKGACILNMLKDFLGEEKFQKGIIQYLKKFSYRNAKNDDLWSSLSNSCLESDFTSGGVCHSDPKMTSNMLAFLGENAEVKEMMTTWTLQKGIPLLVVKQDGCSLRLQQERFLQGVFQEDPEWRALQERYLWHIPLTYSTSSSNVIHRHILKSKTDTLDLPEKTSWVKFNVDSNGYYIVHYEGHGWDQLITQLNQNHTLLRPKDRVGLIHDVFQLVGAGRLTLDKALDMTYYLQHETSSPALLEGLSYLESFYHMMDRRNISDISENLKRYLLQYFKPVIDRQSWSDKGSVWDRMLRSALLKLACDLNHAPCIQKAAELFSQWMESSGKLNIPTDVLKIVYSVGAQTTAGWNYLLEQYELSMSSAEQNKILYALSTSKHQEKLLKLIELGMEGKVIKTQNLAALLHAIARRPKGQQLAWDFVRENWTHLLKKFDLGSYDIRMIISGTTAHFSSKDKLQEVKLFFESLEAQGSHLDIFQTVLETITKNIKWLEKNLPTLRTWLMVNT

IC50 [1] | IC50 [2] | pIC50 [2] | SMILES
7.94 µM | 79.4 µM | – | CC[C@H](C)[C@H](NC(=O)[C@H](Cc1ccc(O)cc1)NC(=O)[C@@H](N)C(C)C)C(=O)N[C@@H](Cc1cnc[nH]1)C(=O)N1CCC[C@H]1C(=O)N[C@@H](Cc1ccccc1)C(=O)O [ANGIOTENSIN IV]
1.26 µM | – | inactive | N[C@H]1CCSSC[C@@H](C(=O)NCc2ccccc2CC(=O)O)NC(=O)C[C@H](Cc2ccc(O)cc2)NC1=O

— ChEMBL document CHEMBL4622965, “Structural Basis of Inhibition of Insulin-Regulated Aminopeptidase by a Macrocyclic Peptidic Inhibitor” (ACS Med Chem Lett, 2020)
